Measurements: US9023789B2, “Amylin analogs and pharmaceutical compositions thereof” (Novo Nordisk A/S, priority 2012, dated 2015)
Numbered stars: 1 amine (or outer) side, 2 acyl side, 3 side chain; on linkers, the order of the positions; unused ones are H or OH. Bridge positions count the residues as written; N and C are the ends. Side chains are listed from the residue outwards. Peptide text beside a SMILES is read from it. * marks the point of attachment. C20 diacid = O=C(O)CCCCCCCCCCCCCCCCCCC(=O)*; γGlu = O=C(O)[C@H](CCC(=O)[*:2])N[*:1]; AEEA = NCCOCCOCC(=O)O

Columns and labels:
[1] = ASSAY (III) ThT fibrillation assay for physical stability; format: physicochemical
How it was run: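 Physical stability scored by ThT fluorescence (444 nm excitation, 485 nm emission) tracked every 20 min during 37 °C incubation with 960 rpm shaking, ThT at 1 μM final. Values are replicate means with SD at chosen times; HPLC against pramlintide standard gives initial and post-assay soluble concentrations.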

[2] = target: T1, rat amylin receptor (rat calcitonin receptor + rat RAMP 3) (Rattus norvegicus, UniProt P32214+Q9JJ73); test: ASSAY (VI) binding to the rat amylin receptor; conditions: for IC50: binding to rat amylin receptor, read-out: rAmylin-R bind IC50
T1 construct: expressed in transfected cells; host or cells: BHK tk'ts 13 (transient, FuGENE 6), membranes
T1 sequence (P32214 25-479 isoform P32214-2 limits assumed): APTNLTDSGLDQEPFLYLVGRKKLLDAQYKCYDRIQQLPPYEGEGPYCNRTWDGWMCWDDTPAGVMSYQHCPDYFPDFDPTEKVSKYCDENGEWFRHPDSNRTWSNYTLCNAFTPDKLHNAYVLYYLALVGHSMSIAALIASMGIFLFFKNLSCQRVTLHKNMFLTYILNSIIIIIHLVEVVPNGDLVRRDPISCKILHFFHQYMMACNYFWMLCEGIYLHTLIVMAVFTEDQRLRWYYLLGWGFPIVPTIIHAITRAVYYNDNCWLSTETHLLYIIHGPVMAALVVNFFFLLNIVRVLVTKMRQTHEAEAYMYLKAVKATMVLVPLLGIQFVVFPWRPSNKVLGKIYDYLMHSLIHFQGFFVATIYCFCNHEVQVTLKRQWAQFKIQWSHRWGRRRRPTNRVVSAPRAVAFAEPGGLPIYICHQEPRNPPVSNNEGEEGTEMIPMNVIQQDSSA
T1 sequence (Q9JJ73 23-147 partner): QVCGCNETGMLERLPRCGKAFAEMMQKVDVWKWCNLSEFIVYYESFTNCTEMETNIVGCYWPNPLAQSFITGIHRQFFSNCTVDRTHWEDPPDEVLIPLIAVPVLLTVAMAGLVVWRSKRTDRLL
How it was run: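 The cell-membrane assay assessed binding at the rat amylin receptor. BHK tk′ts 13 cells were transfected transiently with rat calcitonin receptor, with FuGENE® 6 (Roche) as the transfection reagent, used per the manufacturer's recommendations. Approximately 48 hours after transfection the cells were harvested, and membranes were prepared for measuring binding.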

[3] = Table 7, rat binding selectivity, rCTR IC50 / rAmylin-R IC50
[4] = Table 7a (preferred compounds), rat binding selectivity, rCTR IC50 / rAmylin-R IC50
[5] = ratio of rCTR bind IC50 to rAmylin-R bind IC50

SMILES | ThT pH 4.0 lag time (h) [1] [h] | IC50 ([2]; Table 7) [nM] | Ratio rCT/rAmylin binding [2, 3] | Ratio rCT/rAmylin binding [2, 4] | Ratio rCT/rAmylin binding [2, 5]
CC[C@H](C)[C@H](NC(=O)[C@H](C)NC(=O)CNC(=O)[C@H](Cc1ccccc1)NC(=O)[C@H](CC(N)=O)NC(=O)[C@@H]1CCCN1C(=O)[C@H](CO)NC(=O)[C@H](CO)NC(=O)[C@H](Cc1c[nH]cn1)NC(=O)[C@H](CCCNC(=N)N)NC(=O)[C@H](CC(C)C)NC(=O)[C@H](Cc1ccccc1)NC(=O)[C@H](CC(N)=O)NC(=O)[C@H](C)NC(=O)[C@H](CC(C)C)NC(=O)[C@H](CCCNC(=N)N)NC(=O)[C@H](CCC(N)=O)NC(=O)[C@@H](NC(=O)[C@H](C)NC(=O)[C@@H]1CSSC[C@H](NC(=O)[C@@H](N)CCCCNC(=O)COCCOCCNC(=O)CC[C@H](NC(=O)CCCCCCCCCCCCCCCCCCC(=O)O)C(=O)O)C(=O)N[C@@H](CC(N)=O)C(=O)N[C@@H]([C@@H](C)O)C(=O)N[C@@H](C)C(=O)N[C@@H]([C@@H](C)O)C(=O)N1)[C@@H](C)O)C(=O)N1CCC[C@H]1C(=O)N[C@@H](CO)C(=O)N[C@@H](CO)C(=O)N[C@H](C(=O)N[C@@H](CC(N)=O)C(=O)N[C@H](C(=O)NCC(=O)N[C@@H](CO)C(=O)N[C@@H](CCC(=O)O)C(=O)N[C@H](C(=O)N[C@@H](Cc1ccc(O)cc1)C(N)=O)[C@@H](C)O)C(C)C)[C@@H](C)O [Example 26] (H-K([AEEA-γGlu-C20 diacid])CNTATCATQRLANFLRHSSPNFGAIPSSTNVGSETY-NH2; disulfide 2-7; N-terminus assumed) | 12 | 0.491 | 309.2 | 309.2 | 309.2
CC[C@H](C)[C@H](NC(=O)[C@H](C)NC(=O)CNC(=O)[C@H](Cc1ccccc1)NC(=O)[C@H](CC(N)=O)NC(=O)[C@@H]1CCCN1C(=O)[C@H](CO)NC(=O)[C@H](CO)NC(=O)[C@H](Cc1c[nH]cn1)NC(=O)[C@H](CCCNC(=N)N)NC(=O)[C@H](CC(C)C)NC(=O)[C@H](Cc1ccccc1)NC(=O)[C@H](CC(=O)O)NC(=O)[C@H](C)NC(=O)[C@H](CC(C)C)NC(=O)[C@H](CCCNC(=N)N)NC(=O)[C@H](CCC(N)=O)NC(=O)[C@@H](NC(=O)[C@H](C)NC(=O)[C@@H]1CSSC[C@H](NC(=O)[C@@H](N)CCCCNC(=O)CC[C@H](NC(=O)CC[C@H](NC(=O)CCCCCCCCCCCCCCCCCCC(=O)O)C(=O)O)C(=O)O)C(=O)N[C@@H](CC(N)=O)C(=O)N[C@@H]([C@@H](C)O)C(=O)N[C@@H](C)C(=O)N[C@@H]([C@@H](C)O)C(=O)N1)[C@@H](C)O)C(=O)N1CCC[C@H]1C(=O)N[C@@H](CO)C(=O)N[C@@H](CO)C(=O)N[C@H](C(=O)N[C@@H](CC(N)=O)C(=O)N[C@H](C(=O)NCC(=O)N1CCC[C@H]1C(=O)N[C@@H](CCC(=O)O)C(=O)N[C@H](C(=O)N[C@@H](Cc1ccc(O)cc1)C(N)=O)[C@@H](C)O)C(C)C)[C@@H](C)O [Example 122] (H-K([γGlu-γGlu-C20 diacid])CNTATCATQRLADFLRHSSPNFGAIPSSTNVGPETY-NH2; disulfide 2-7 (inferred); N-terminus assumed) | 45 | 0.324 | 98.5 | 98.5 | 98.5
CC[C@H](C)[C@H](NC(=O)[C@H](C)NC(=O)CNC(=O)[C@H](Cc1ccccc1)NC(=O)[C@H](CC(N)=O)NC(=O)[C@@H]1CCCN1C(=O)[C@H](CO)NC(=O)[C@H](CO)NC(=O)[C@H](Cc1c[nH]cn1)NC(=O)[C@H](CCCNC(=N)N)NC(=O)[C@H](CC(C)C)NC(=O)[C@H](Cc1ccccc1)NC(=O)[C@H](CCC(=O)O)NC(=O)[C@H](C)NC(=O)[C@H](CC(C)C)NC(=O)[C@H](CCCNC(=N)N)NC(=O)[C@H](CCC(N)=O)NC(=O)[C@@H](NC(=O)[C@H](C)NC(=O)[C@@H]1CSSC[C@H](NC(=O)[C@@H](N)CCCCNC(=O)CC[C@H](NC(=O)CC[C@H](NC(=O)CCCCCCCCCCCCCCCCCCC(=O)O)C(=O)O)C(=O)O)C(=O)N[C@@H](CC(N)=O)C(=O)N[C@@H]([C@@H](C)O)C(=O)N[C@@H](C)C(=O)N[C@@H]([C@@H](C)O)C(=O)N1)[C@@H](C)O)C(=O)N1CCC[C@H]1C(=O)N[C@@H](CO)C(=O)N[C@@H](CO)C(=O)N[C@H](C(=O)N[C@@H](CC(N)=O)C(=O)N[C@H](C(=O)NCC(=O)N[C@@H](Cc1c[nH]cn1)C(=O)N[C@@H](CC(N)=O)C(=O)N[C@H](C(=O)N[C@@H](Cc1ccc(O)cc1)C(N)=O)[C@@H](C)O)C(C)C)[C@@H](C)O [Example 87] (H-K([γGlu-γGlu-C20 diacid])CNTATCATQRLAEFLRHSSPNFGAIPSSTNVGHNTY-NH2; disulfide 2-7) | 45 | 2.07 | 45.6 | 45.6 | 45.6
CC[C@H](C)[C@H](NC(=O)[C@H](C)NC(=O)CNC(=O)[C@H](Cc1ccccc1)NC(=O)[C@H](CC(N)=O)NC(=O)[C@@H]1CCCN1C(=O)[C@H](CO)NC(=O)[C@H](CO)NC(=O)[C@H](Cc1c[nH]cn1)NC(=O)[C@H](CCCNC(=N)N)NC(=O)[C@H](CC(C)C)NC(=O)[C@H](Cc1ccccc1)NC(=O)[C@H](CC(=O)O)NC(=O)[C@H](C)NC(=O)[C@H](CC(C)C)NC(=O)[C@H](CCCNC(=N)N)NC(=O)[C@H](CCC(N)=O)NC(=O)[C@@H](NC(=O)[C@H](C)NC(=O)[C@@H]1CSSC[C@H](NC(=O)[C@@H](N)CCCCNC(=O)CC[C@H](NC(=O)CC[C@H](NC(=O)CCCCCCCCCCCCCCCCCCC(=O)O)C(=O)O)C(=O)O)C(=O)N[C@@H](CC(N)=O)C(=O)N[C@@H]([C@@H](C)O)C(=O)N[C@@H](C)C(=O)N[C@@H]([C@@H](C)O)C(=O)N1)[C@@H](C)O)C(=O)N1CCC[C@H]1C(=O)N[C@@H](CO)C(=O)N[C@@H](CO)C(=O)N[C@H](C(=O)N[C@@H](CC(N)=O)C(=O)N[C@H](C(=O)NCC(=O)N[C@@H](CO)C(=O)N[C@@H](CCCNC(=N)N)C(=O)N[C@H](C(=O)N[C@@H](Cc1ccc(O)cc1)C(N)=O)[C@@H](C)O)C(C)C)[C@@H](C)O [Example 52, N-ε-1-{(S)-4-carboxy-4-[(S)-4-carboxy-4-(19-carboxynonadecanoylamino)butyrylamino]butyryl}-[Asp14,Arg17,Pro21,Pro27,Arg35]-human amylin] | 41 | 0.335 | 476.7 | 476.7 | 476.7
CC[C@H](C)[C@H](NC(=O)[C@H](C)NC(=O)CNC(=O)[C@H](Cc1ccccc1)NC(=O)[C@H](CC(N)=O)NC(=O)[C@@H]1CCCN1C(=O)[C@H](CO)NC(=O)[C@H](CO)NC(=O)[C@H](Cc1c[nH]cn1)NC(=O)[C@H](CCCNC(=N)N)NC(=O)[C@H](CC(C)C)NC(=O)[C@H](Cc1ccccc1)NC(=O)[C@H](CC(N)=O)NC(=O)[C@H](C)NC(=O)[C@H](CC(C)C)NC(=O)[C@H](CCCNC(=N)N)NC(=O)[C@H](CCC(N)=O)NC(=O)[C@@H](NC(=O)[C@H](C)NC(=O)[C@@H]1CSSC[C@H](NC(=O)[C@@H](N)CCCCNC(=O)CC[C@H](NC(=O)CCCCCCCCCCCCCCCCCCC(=O)O)C(=O)O)C(=O)N[C@@H](CC(N)=O)C(=O)N[C@@H]([C@@H](C)O)C(=O)N[C@@H](C)C(=O)N[C@@H]([C@@H](C)O)C(=O)N1)[C@@H](C)O)C(=O)N1CCC[C@H]1C(=O)N[C@@H](CO)C(=O)N[C@@H](CO)C(=O)N[C@H](C(=O)N[C@@H](CC(N)=O)C(=O)N[C@H](C(=O)NCC(=O)N[C@@H](CO)C(=O)N[C@@H](Cc1c[nH]cn1)C(=O)N[C@H](C(=O)N[C@@H](Cc1ccc(O)cc1)C(N)=O)[C@@H](C)O)C(C)C)[C@@H](C)O [Example 60] | 45 | 0.215 | 122.4 | 122.4 | 122.4
